Earlier results on one substance are cited in patent US8109064B2, “Methods and systems for contact lens sterilization” (Menicon Signapore Pte Ltd., priority 2006, dated 2012).

For the series the following is noted: in vivo.

Consider polyhexamine biguanide [PHMB], for which the corneal staining result is “implicated in corneal staining”.
